Reference: ChEMBL document CHEMBL4346657, “Anticancer activity, dual prooxidant/antioxidant effect and apoptosis induction profile of new bichalcophene-5-carboxamidines” (Eur J Med Chem, 2019)
Calls of active or inactive are those of the source. No cut-off for these calls is given here.

Assays:
[1] = system: UO-31; assay: Antiproliferative activity against human UO31 cells assessed as growth inhibition after 48 hrs by sulforhodamine B assay; type: functional; conditions: UO-31, 48 h
[2] = system: CAKI-1; assay: Antiproliferative activity against human CAKI-1 cells assessed as growth inhibition after 48 hrs by sulforhodamine B assay; type: functional; conditions: CAKI-1, 48 h
[3] = system: M14; assay: Antiproliferative activity against human M14 cells assessed as growth inhibition after 48 hrs by sulforhodamine B assay; type: functional; conditions: M14, 48 h
[4] = system: MOLT-4; assay: Antiproliferative activity against human MOLT4 cells assessed as growth inhibition after 48 hrs by sulforhodamine B assay; type: functional; conditions: MOLT-4, 48 h
[5] = system: HL-60(TB); assay: Antiproliferative activity against human HL-60(TB) cells assessed as growth inhibition after 48 hrs by sulforhodamine B assay; type: functional; conditions: HL-60, 48 h
[6] = system: NCI-H226; assay: Antiproliferative activity against human NCI-H226 cells assessed as growth inhibition after 48 hrs by sulforhodamine B assay; type: functional; conditions: NCI-H226, 48 h
[7] = system: U-251; assay: Antiproliferative activity against human U251 cells assessed as growth inhibition after 48 hrs by sulforhodamine B assay; type: functional; conditions: U-251, 48 h
[8] = system: HCT-116; assay: Induction of apoptosis in human HCT116 cells assessed as increase in p53 mRNA expression at 100 nM after 6 hrs hrs by SYBR green dye-based qRT-PCR analysis relative to control; type: functional
[9] = system: Hs-578T; assay: Antiproliferative activity against human Hs578T cells assessed as growth inhibition after 48 hrs by sulforhodamine B assay; type: functional
[10] = system: OVCAR-5; assay: Antiproliferative activity against human OVCAR5 cells assessed as growth inhibition after 48 hrs by sulforhodamine B assay; type: functional; conditions: OVCAR-5, 48 h
[11] = system: MCF7; assay: Antiproliferative activity against human MCF7 cells assessed as growth inhibition after 48 hrs by sulforhodamine B assay; type: functional; conditions: MCF7, 48 h
[12] = system: OVCAR-4; assay: Antiproliferative activity against human OVCAR4 cells assessed as growth inhibition after 48 hrs by sulforhodamine B assay; type: functional; conditions: OVCAR-4, 48 h
[13] = Antioxidant activity assessed as DPPH radical scavenging activity incubated in dark for 30 mins by spectrophotometric method relative to control; type: functional; set-up: concentration or dose not given beside the values
[14] = Haemolytic activity in human erythrocytes assessed as induction of hemolysis at 10 mM after 30 mins relative to H202; type: cell-based, Erythrocyte; conditions: read-out: Activity
[15] = system: Erythrocyte; assay: Haemolytic activity in human erythrocytes assessed as induction of hemolysis at 1.25 mM after 30 mins relative to H202; type: cell-based; conditions: erythrocyte, 0.5 h, 1250 µM
[16] = system: SK-MEL-5; assay: Antiproliferative activity against human SK-MEL-5 cells assessed as growth inhibition after 48 hrs by sulforhodamine B assay; type: functional; conditions: SK-MEL-5, 48 h
[17] = system: HT-29; assay: Antiproliferative activity against human HT-29 cells assessed as growth inhibition after 48 hrs by sulforhodamine B assay; type: functional; conditions: HT-29, 48 h
[18] = system: 786-0; assay: Antiproliferative activity against human 786-0 cells assessed as growth inhibition after 48 hrs by sulforhodamine B assay; type: functional; conditions: 786-0, 48 h
[19] = system: HCT-116; assay: Antiproliferative activity against human HCT116 cells assessed as growth inhibition after 48 hrs by sulforhodamine B assay; type: functional; conditions: HCT-116, 48 h
[20] = system: OVCAR-8; assay: Antiproliferative activity against human OVCAR8 cells assessed as growth inhibition after 48 hrs by sulforhodamine B assay; type: functional; conditions: OVCAR-8, 48 h
[21] = system: Panel NCI-60 (60 carcinoma cell lines); assay: Antiproliferative activity against human NCI60 cells assessed as growth inhibition at 10 uM after 48 hrs by sulforhodamine B assay; type: functional; conditions: read-out: GI
[22] = system: HCT-116; assay: Induction of apoptosis in human HCT116 cells assessed as increase in caspase 9 mRNA expression at 100 nM after 6 hrs hrs by SYBR green dye-based qRT-PCR analysis relative to control; type: functional
[23] = system: SK-OV-3; assay: Antiproliferative activity against human SKOV3 cells assessed as growth inhibition after 48 hrs by sulforhodamine B assay; type: functional; conditions: SK-OV-3, 48 h
[24] = system: TK-10; assay: Antiproliferative activity against human TK10 cells assessed as growth inhibition after 48 hrs by sulforhodamine B assay; type: functional; conditions: TK-10, 48 h
[25] = Pro-oxidant activity assessed as increase in bleomycin-Fe2+ induced calf thymus DNA damage at 2 mM after 1 hr by thiobarbituric acid based absorbance analysis
[26] = system: SF-295; assay: Antiproliferative activity against human SF295 cells assessed as growth inhibition after 48 hrs by sulforhodamine B assay; type: functional; conditions: SF-295, 48 h
[27] = system: NCI-H23; assay: Antiproliferative activity against human NCI-H23 cells assessed as growth inhibition after 48 hrs by sulforhodamine B assay; type: functional; conditions: NCI-H23, 48 h
[28] = system: MDA-MB-468; assay: Antiproliferative activity against human MDA-MB-468 cells assessed as growth inhibition after 48 hrs by sulforhodamine B assay; type: functional; conditions: MDA-MB-468, 48 h
[29] = system: ACHN; assay: Antiproliferative activity against human ACHN cells assessed as growth inhibition after 48 hrs by sulforhodamine B assay; type: functional
[30] = system: HCT-15; assay: Antiproliferative activity against human HCT15 cells assessed as growth inhibition after 48 hrs by sulforhodamine B assay; type: functional; conditions: HCT-15, 48 h
[31] = system: RXF 393; assay: Antiproliferative activity against human RXF393 cells assessed as growth inhibition after 48 hrs by sulforhodamine B assay; type: functional; conditions: RXF 393, 48 h
[32] = system: SN12C; assay: Antiproliferative activity against human SN12C cells assessed as growth inhibition after 48 hrs by sulforhodamine B assay; type: functional
[33] = system: A549; assay: Antiproliferative activity against human A549/ATCC cells assessed as growth inhibition after 48 hrs by sulforhodamine B assay; type: functional; conditions: A549, 48 h
[34] = system: SF-539; assay: Antiproliferative activity against human SF539 cells assessed as growth inhibition after 48 hrs by sulforhodamine B assay; type: functional; conditions: SF-539, 48 h
[35] = system: RPMI-8226; assay: Antiproliferative activity against human RPMI8226 cells assessed as growth inhibition after 48 hrs by sulforhodamine B assay; type: functional; conditions: RPMI-8226, 48 h
[36] = system: PC-3; assay: Antiproliferative activity against human PC3 cells assessed as growth inhibition after 48 hrs by sulforhodamine B assay; type: functional; conditions: PC-3, 48 h
[37] = system: SNB-75; assay: Antiproliferative activity against human SNB75 cells assessed as growth inhibition after 48 hrs by sulforhodamine B assay; type: functional; conditions: SNB-75, 48 h
[38] = system: SF-268; assay: Antiproliferative activity against human SF268 cells assessed as growth inhibition after 48 hrs by sulforhodamine B assay; type: functional; conditions: SF-268, 48 h
[39] = system: CCRF-CEM; assay: Antiproliferative activity against human CCRF-CEM cells assessed as growth inhibition after 48 hrs by sulforhodamine B assay; type: functional
[40] = system: SK-MEL-2; assay: Antiproliferative activity against human SK-MEL-2 cells assessed as growth inhibition after 48 hrs by sulforhodamine B assay; type: functional; conditions: SK-MEL-2, 48 h
[41] = system: SK-MEL-28; assay: Antiproliferative activity against human SK-MEL-28 cells assessed as growth inhibition after 48 hrs by sulforhodamine B assay; type: functional; conditions: SK-MEL-28, 48 h
[42] = Antioxidant activity assessed as ABTS radical scavenging activity by spectrophotometric analysis relative to control; type: functional; set-up: concentration or dose not given beside the values; conditions: dose or concentration not given here

COc1ccc(-c2ccc(-c3ccc(C(=N)N)o3)o2)cc1
GI50 [1]: 1720 nM
GI50 [2]: 1750 nM
GI50 [3]: 1470 nM
GI50 [4]: 1200 nM
GI50 [5]: 1230 nM
GI50 [6]: 22000 nM
GI50 [7]: 1740 nM
fold change (FC) [8]: 0.94
GI50 [9]: 4330 nM
GI50 [10]: 2430 nM
GI50 [11]: 330 nM
GI50 [12]: 2220 nM
inhibition [13]: 61.7%
hemolysis at 0.5 h, 10000 µM [14]: 71.7%
Activity [15]: Non-Toxic
GI50 [16]: 2800 nM
GI50 [17]: 480 nM
GI50 [18]: 2220 nM
GI50 [19]: 1070 nM
GI50 [20]: 3190 nM
inhibition of growth at 10 µM [21]: 86.4%
fold change (FC) [22]: 2.31
GI50 [23]: 5630 nM
GI50 [24]: 7970 nM
Activity [25]: Active
GI50 [26]: 1680 nM
GI50 [27]: 4340 nM
GI50 [28]: 860 nM
GI50 [29]: 1800 nM
GI50 [30]: 670 nM
GI50 [31]: 2120 nM
GI50 [32]: 2020 nM
GI50 [33]: 1490 nM
GI50 [34]: 1890 nM
GI50 [35]: 2680 nM
GI50 [36]: 1880 nM
GI50 [37]: 1470 nM
GI50 [38]: 2040 nM
GI50 [39]: 1840 nM
GI50 [40]: 5710 nM
GI50 [41]: 1670 nM
inhibition [42]: 69.2%

COc1cc(-c2ccc(-c3ccc(C(=N)N)s3)s2)cc(OC)c1OC
GI50 [1]: 1740 nM
GI50 [2]: 1700 nM
GI50 [3]: 1700 nM
GI50 [4]: 2400 nM
GI50 [5]: 2700 nM
GI50 [6]: 1880 nM
GI50 [7]: 1990 nM
fold change (FC) [8]: 1.01
GI50 [10]: 1470 nM
GI50 [11]: 1660 nM
GI50 [12]: 1820 nM
inhibition [13]: 64.1%
hemolysis at 0.5 h, 10000 µM [14]: 79.7%
Activity [15]: Non-Toxic
GI50 [16]: 1520 nM
GI50 [17]: 1240 nM
GI50 [18]: 1730 nM
GI50 [19]: 1730 nM
GI50 [20]: 2620 nM
inhibition of growth at 10 µM [21]: 73.5%
fold change (FC) [22]: 2.81
GI50 [23]: 5150 nM
GI50 [24]: 2700 nM
Activity [25]: Active
GI50 [26]: 1780 nM
GI50 [27]: 2610 nM
GI50 [28]: 1820 nM
GI50 [29]: 1780 nM
GI50 [30]: 1910 nM
GI50 [31]: 1660 nM
GI50 [32]: 1610 nM
GI50 [33]: 2140 nM
GI50 [34]: 1580 nM
GI50 [35]: 2460 nM
GI50 [36]: 1770 nM
GI50 [37]: 1500 nM
GI50 [38]: 1740 nM
GI50 [39]: 3420 nM
GI50 [41]: 1580 nM
inhibition [42]: 75.4%

N=C(N)c1ccc(-c2ccc(-c3ccc(Cl)cc3)o2)o1
GI50 [1]: 1750 nM
GI50 [2]: 1690 nM
GI50 [3]: 1850 nM
GI50 [4]: 1660 nM
GI50 [5]: 1870 nM
GI50 [6]: 2190 nM
GI50 [7]: 1880 nM
fold change (FC) [8]: 1.09
GI50 [9]: 2000 nM
GI50 [10]: 1820 nM
GI50 [11]: 1270 nM
GI50 [12]: 1800 nM
inhibition [13]: 17.5%
hemolysis at 0.5 h, 10000 µM [14]: 97.3%
GI50 [16]: 1810 nM
GI50 [17]: 1680 nM
GI50 [18]: 1850 nM
GI50 [19]: 1900 nM
GI50 [20]: 2020 nM
inhibition of growth at 10 µM [21]: -2.02%
fold change (FC) [22]: 4
GI50 [23]: 1790 nM
GI50 [24]: 2070 nM
Activity [25]: Active
GI50 [26]: 1830 nM
GI50 [27]: 1690 nM
GI50 [28]: 2190 nM
GI50 [29]: 1890 nM
GI50 [30]: 1520 nM
GI50 [31]: 1820 nM
GI50 [32]: 1900 nM
GI50 [33]: 1980 nM
GI50 [34]: 1710 nM
GI50 [35]: 2120 nM
GI50 [36]: 1810 nM
GI50 [37]: 1500 nM
GI50 [38]: 1750 nM
GI50 [39]: 1960 nM
GI50 [40]: 2080 nM
GI50 [41]: 1830 nM
inhibition [42]: 20.4%
